Results from patent US10167262B2, “Herbicidal substituted 3-arylpyrazoles” (FMC CORPORATION, priority 2014, dated 2019).

Assays:
Assay type in all cases: in vivo
[1] = test system: barnyardgrass (Echinochloa crus-galli); test: Test B flooded paddy test, plant response rating 0-100; conditions: Flood, 250 g ai/ha; scale 0 to 100 (0 no effect, 100 complete control); 13 to 15 days
Method in brief: (§1)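 Flooded 3 cm over soil; compound into paddy water; depth kept constant. Greenhouse 13–15 d.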

[2] = test system: ducksalad (Heteranthera limosa); test: as above; conditions: Flood, 250 g ai/ha; scale 0 to 100 (0 no effect, 100 complete control); 13 to 15 days
Method in brief: as §1

rice (Oryza sativa) = test: as above; conditions: Flood, 250 g ai/ha; scale 0 to 100 (0 no effect, 100 complete control); 13 to 15 days
Method in brief: as §1

[3] = test system: sedge, umbrella (small-flower umbrella sedge, Cyperus difformis); test: as above; conditions: Flood, 250 g ai/ha; scale 0 to 100 (0 no effect, 100 complete control); 13 to 15 days
Method in brief: as §1

[4] = test system: canarygrass (Phalaris minor); test: Test C postemergence greenhouse test, plant response rating 0-100; conditions: for Plant response rating, Canarygrass: scale 0 to 100
Method in brief: (§2)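 Response is a visual 0–100 control rating taken 13 to 15 days post-treatment, with a dash marking no result. Plants ranged 2 to 18 cm when treated postemergence.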

[5] = test system: cocklebur (common cocklebur, Xanthium strumarium); test: as above; conditions: for Plant response rating, Cocklebur: scale 0 to 100
Method in brief: as §2

[6] = test system: deadnettle (henbit deadnettle, Lamium amplexicaule); test: as above; conditions: for Plant response rating, Deadnettle: scale 0 to 100
Method in brief: as §2

[7] = test system: downy bromegrass (Bromus tectorum); test: as above; conditions: for Plant response rating, Bromegrass, Downy: scale 0 to 100
Method in brief: as §2

[8] = test system: green foxtail (Setaria viridis); test: as above; conditions: for Plant response rating, Foxtail, Green: scale 0 to 100
Method in brief: as §2

[9] = test system: surinam grass (Brachiaria decumbens); test: as above; conditions: for Plant response rating, Surinam Grass: scale 0 to 100
Method in brief: as §2

[10] = test system: windgrass (Apera spica-venti); test: as above; conditions: for Plant response rating, Windgrass: scale 0 to 100
Method in brief: as §2

[11] = test system: winter barley (Hordeum vulgare); test: as above; conditions: for Plant response rating, Barley: scale 0 to 100
Method in brief: as §2

[12] = test system: woolly cupgrass (Eriochloa villosa); test: as above; conditions: for Plant response rating, Cupgrass, Woolly: scale 0 to 100
Method in brief: as §2

Structure (SMILES) | Plant response rating, Barnyardgrass [1] | Plant response rating, Ducksalad [2] | Plant response rating, Rice (rice (Oryza sativa)) | Plant response rating, Sedge, Umbrella [3] | Plant response rating (0 to 100), Canarygrass ([4]; 62 g ai/ha) | Plant response rating (0 to 100), Canarygrass ([4]; 125 g ai/ha) | Plant response rating, Canarygrass ([4]; 250 g ai/ha) | Plant response rating (0 to 100), Cocklebur ([5]; 62 g ai/ha) | Plant response rating (0 to 100), Cocklebur ([5]; 125 g ai/ha) | Plant response rating, Cocklebur ([5]; 250 g ai/ha) | Plant response rating (0 to 100), Deadnettle ([6]; 62 g ai/ha) | Plant response rating (0 to 100), Deadnettle ([6]; 125 g ai/ha) | Plant response rating, Deadnettle ([6]; 250 g ai/ha) | Plant response rating (0 to 100), Bromegrass, Downy ([7]; 62 g ai/ha) | Plant response rating (0 to 100), Bromegrass, Downy ([7]; 125 g ai/ha) | Plant response rating, Bromegrass, Downy ([7]; 250 g ai/ha) | Plant response rating (0 to 100), Foxtail, Green ([8]; 62 g ai/ha) | Plant response rating (0 to 100), Foxtail, Green ([8]; 125 g ai/ha) | Plant response rating, Foxtail, Green ([8]; 250 g ai/ha) | Plant response rating (0 to 100), Surinam Grass ([9]; 62 g ai/ha) | also measured
Fc1ccccc1NN=C(c1ccccc1)c1c[nH]nc1-c1cc(Cl)cc(Cl)c1 [Compound 57] | 0 | 0 | 0 | 75 | 0 | 0 | 0 | 70 | 70 | 70 | 0 | 0 | 0 | 0 | 0 | 0 | 0 | 0 | 0 | 0 | Plant response rating (0 to 100), Canarygrass ([4]; 31 g ai/ha): 0; Plant response rating (0 to 100), Cocklebur ([5]; 31 g ai/ha): 10; Plant response rating (0 to 100), Deadnettle ([6]; 31 g ai/ha): 0; Plant response rating (0 to 100), Bromegrass, Downy ([7]; 31 g ai/ha): 0; Plant response rating (0 to 100), Foxtail, Green ([8]; 31 g ai/ha): 0; Plant response rating (0 to 100), Surinam Grass ([9]; 125 g ai/ha): 0; Plant response rating, Surinam Grass ([9]; 250 g ai/ha): 0; Plant response rating (0 to 100), Windgrass ([10]; 62 g ai/ha): 0; Plant response rating (0 to 100), Windgrass ([10]; 125 g ai/ha): 0; Plant response rating, Windgrass ([10]; 250 g ai/ha): 0; Plant response rating (0 to 100), Barley ([11]; 31 g ai/ha): 0; Plant response rating (0 to 100), Barley ([11]; 62 g ai/ha): 0; Plant response rating (0 to 100), Barley ([11]; 125 g ai/ha): 0; Plant response rating, Barley ([11]; 250 g ai/ha): 0; Plant response rating (0 to 100), Cupgrass, Woolly ([12]; 31 g ai/ha): 0; Plant response rating (0 to 100), Cupgrass, Woolly ([12]; 62 g ai/ha): 0; Plant response rating (0 to 100), Cupgrass, Woolly ([12]; 125 g ai/ha): 5; Plant response rating, Cupgrass, Woolly ([12]; 250 g ai/ha): 5
Cn1cc(C(=O)c2ccccc2)c(-c2cc(Br)cc(Br)c2)n1 [Compound 53] | 0 | 0 | 0 | 40 | 0 | 0 | 0 | 5 | 10 | 10 | 0 | 0 | 0 | 0 | 0 | 0 | 0 | 0 | 0 | 0 | Plant response rating, Canarygrass ([4]; 500 g ai/ha): 0; Plant response rating, Cocklebur ([5]; 500 g ai/ha): 15; Plant response rating, Deadnettle ([6]; 500 g ai/ha): 0; Plant response rating, Bromegrass, Downy ([7]; 500 g ai/ha): 0; Plant response rating, Foxtail, Green ([8]; 500 g ai/ha): 0; Plant response rating (0 to 100), Surinam Grass ([9]; 125 g ai/ha): 0; Plant response rating, Surinam Grass ([9]; 250 g ai/ha): 0; Plant response rating, Surinam Grass ([9]; 500 g ai/ha): 0; Plant response rating (0 to 100), Windgrass ([10]; 62 g ai/ha): 0; Plant response rating (0 to 100), Windgrass ([10]; 125 g ai/ha): 0; Plant response rating, Windgrass ([10]; 250 g ai/ha): 0; Plant response rating, Windgrass ([10]; 500 g ai/ha): 0; Plant response rating (0 to 100), Barley ([11]; 62 g ai/ha): 0; Plant response rating (0 to 100), Barley ([11]; 125 g ai/ha): 0; Plant response rating, Barley ([11]; 250 g ai/ha): 0; Plant response rating, Barley ([11]; 500 g ai/ha): 0; Plant response rating (0 to 100), Cupgrass, Woolly ([12]; 62 g ai/ha): 5; Plant response rating (0 to 100), Cupgrass, Woolly ([12]; 125 g ai/ha): 5; Plant response rating, Cupgrass, Woolly ([12]; 250 g ai/ha): 5; Plant response rating, Cupgrass, Woolly ([12]; 500 g ai/ha): 5
